This passage reports melting point results from the Bradley open melting point set (2014).

Usually melting point stands for the temperature, or range, at which the solid turns liquid. `O=[N+]([O-])c1cc(Cl)[n+]([O-])c(Cl)c1` [2,6-dichloro-4-nitropyridine n-oxide]: the melting point is 178 °C. For `O=C(O)CCc1ccccc1` [3-phenylpropionic acid] the value was 48.5 °C.

For the compound `O=C(O)C1(C(F)(F)F)CCCCC1` [1-(trifluoromethyl)cyclohexanecarboxylic acid], the melting point came to 70 °C. `N#Cc1ccc(F)cc1` [4-fluorobenzonitrile] returned a melting point of 36 °C. For `O=C(CCCN1CCC(n2c(=O)[nH]c3ccccc32)CC1)c1ccc(F)cc1` [benperidol] the value was 171 °C. As to `COC(=O)c1ccc(C(C)=O)cc1` [methyl_4-acetylbenzoate], the melting point was determined as 95 °C. Consider `CCCCN` [Butylamine], for which the melting point was -49 °C. On to `CN(C)CCN1C(=O)c2ccccc2N(C)c2ccccc21` [dibenzepin], for which the melting point came out at 116 °C.

As for `CCCC(C)(COC(N)=O)COC(N)=O` [meprobamate], the melting point turned out to be 105 °C.

Compound `NC(Cc1ccc(N(CCCl)CCCl)cc1)C(=O)O` (stereo unspecified) [Melphalan] returned a melting point of 182 °C. For `Oc1c(F)cc(F)cc1F` [2,4,6-trifluorophenol] the value was 50 °C.

Compound `COc1ccc(SCC(=O)O)cc1OC` [(3,4-dimethoxyphenylthio)acetic acid] came in with a melting point of 102 °C. Compound `CC(=O)Nc1nnc(S(N)(=O)=O)s1` [Acetazolamide] yielded a melting point of 260 °C. For `C=C(C)CC` [2-methyl-1-butene] the value was -137 °C; for `CCOC(=O)C(=Nn1nnc2ccccc21)C(=O)OCC` [diethyl (1h-benzotriazol-1-yl)iminomalonate], 100 °C. Turning to `BrCCCCCCBr` [1,6-Dibromohexane], the melting point was determined as 2 °C. As for `c1ccc2c(c1)ccc1ccccc12` [phenanthrene], the melting point is 100 °C.

For `CCc1cc2cc(OC)c(OC)cc2c(Cc2ccccc2)n1` [moxaverine], the melting point stood at 78 °C. For `O=C(O)c1cc(C(=O)O)cc(C(=O)O)c1` [1,3,5-benzenetricarboxylic acid] the value was 375 °C; for `CCCCc1ccc(NC(C)=O)cc1` [N-(4-butylphenyl)acetamide], 105 °C.

With `COc1ccc2[nH]c(S(=O)Cc3ncc(C)c(OC)c3C)nc2c1` (stereo unspecified) [omeprazole], the melting point is 156 °C.

`O=C1CCCCC1c1ccccc1` (stereo unspecified) [2-phenylcyclohexanone] yielded a melting point of 58 °C.

In turn, `Cc1ccccc1CCl` [2-methylbenzyl chloride] gave a melting point of 2 °C. Under `COc1ccc2cc(C(C)COC(C)=O)ccc2c1` (stereo unspecified) [Naproxol acetate] stands 61 °C. On to `Brc1cccc2cc[nH]c12` [7-bromoindole], for which the melting point was found to be 43 °C.

`O=C(O)c1ccccc1[N+](=O)[O-]` [2-nitrobenzoic acid] showed a melting point of 148 °C. For `Oc1ccc2ccccc2c1N=Nc1nccs1` [1-(2-thiazolylazo)-2-naphthol] the value was 139 °C. Under `O=C(O)c1cccc([N+](=O)[O-])c1Cl` [2-chloro-3-nitrobenzoic acid] stands 184 °C; under `CCCCCCCCCCCCOP(=O)(O)O` [mono-n-dodecyl phosphate], 42 °C. For the compound `CCC(=O)OC(=O)CC` [Propanoic anhydride], the melting point is -45 °C. Under `Cc1ccc(B(O)O)c(Cl)c1` [2-chloro-4-methylbenzeneboronic acid] stands 200 °C. Take `CCCCCCCCCC#N` [decanonitrile]: the melting point is -15 °C. For `O=C[C@H](O)[C@H](O)[C@@H](O)CO` [L-lyxose] the value was 110 °C.

On to `Cl/C=C/Cl` [trans-1,2-dichloroethylene], for which the melting point is -50 °C.

`CC(=O)c1c(C)c(C)c(C)c(C)c1C` [2',3',4',5',6'-pentamethylacetophenone] registered a melting point of 86 °C.

In turn, `C(#Cc1ccc2ccccc2c1)c1ccccc1` [2-(phenylethynyl)naphthalene] yielded a melting point of 117 °C.
